According to ChEMBL document CHEMBL2046434, “Morita-Baylis-Hillman adducts: biological activities and potentialities to the discovery of new cheaper drugs” (Bioorg Med Chem, 2012):
pIC50: −log10 of the molar value.

How the values were obtained:
[1] = system: HeLa; assay: Growth inhibition of human HeLa cells at 5 uM; format: functional; details: read-out: GI
[2] = system: Aspergillus niger; assay: Antimicrobial activity against Aspergillus niger; format: functional
[3] = system: Candida albicans; assay: Antimicrobial activity against Candida albicans; format: functional
[4] = system: Leishmania amazonensis; assay: Antileishmanial activity against Leishmania amazonensis promastigotes; format: functional, organism-based
[5] = system: Trypanosoma cruzi; assay: Antitrypanosomal activity against Trypanosoma cruzi trypomastigotes; format: functional, organism-based
[6] = system: Trypanosoma cruzi; assay: Antitrypanosomal activity against Trypanosoma cruzi epimastigotes; format: functional, organism-based

SMILES | inhibition of growth at 5 µM [1] [%] | zone of inhibition [2] [mm] | zone of inhibition [3] [mm] | further results
CC(=O)CC/C(=C/c1ccc(Cl)cc1)[N+](=O)[O-] | > 70 |  |  | 
C=C(C#N)C(O)c1ccccc1OC (stereo unspecified) |  | 12 |  | 
Cc1ccc(S(=O)(=O)NC(/C(=C/c2ccco2)[N+](=O)[O-])c2ccco2)cc1 (stereo unspecified) | 32 |  |  | 
C=C(C#N)C(O)c1cccc([N+](=O)[O-])c1 (stereo unspecified) |  | 14 | 10 | 
C=C(C(=O)OC)C(O)c1cccc([N+](=O)[O-])c1 (stereo unspecified) |  |  |  | pIC50 [4]: 3.35
C=C(C(=O)OCC)C(O)c1ccccc1OC (stereo unspecified) |  |  | 12 | 
C=C(C(=O)OCC)C(O)c1ccccc1Cl (stereo unspecified) |  | 14 | 13 | 
COc1ccc(/C=C(/CCC(C)=O)[N+](=O)[O-])cc1 | > 70 |  |  | 
Cc1ccc(S(=O)(=O)NC(/C(=C/c2ccco2)[N+](=O)[O-])c2ccccc2)cc1 (stereo unspecified) | 44 |  |  | 
C=C(C(=O)OCC)C(O)c1cccc([N+](=O)[O-])c1 (stereo unspecified) |  | 13 | 14 | 
C=C(C#N)C(O)c1ccc([N+](=O)[O-])cc1 (stereo unspecified) |  | 12 | 12 | pIC50 [5]: 4.59; pIC50 [6]: 4.55
C=C(C#N)C(O)c1ccccc1Cl (stereo unspecified) |  | 14 | 13 | 
C=C(C#N)C(O)c1ccc(Cl)cc1 (stereo unspecified) |  | 12 | 13 | 
Cc1ccc(S(=O)(=O)NC(/C(=C/c2cccs2)[N+](=O)[O-])c2ccccc2)cc1 (stereo unspecified) | 49 |  |  | 
COc1ccc(/C=C(/C(NS(=O)(=O)c2ccc(C)cc2)c2ccccc2)[N+](=O)[O-])cc1OC (stereo unspecified) | 35 |  |  | 
C=C(C(=O)OCC)C(O)c1ccc([N+](=O)[O-])cc1 (stereo unspecified) |  | 12 | 11 | 

SMILES | inhibition of growth at 5 µM [1] [%] | zone of inhibition [2] [mm] | zone of inhibition [3] [mm] | further results
Cc1ccc(S(=O)(=O)NC(/C(=C/c2ccoc2)[N+](=O)[O-])c2ccccc2)cc1 (stereo unspecified) | 28 |  |  | 
C=C(C#N)C(O)c1ccccc1[N+](=O)[O-] (stereo unspecified) |  | 11 | 13 | 
C=C(C(=O)OC)C(O)c1ccccc1[N+](=O)[O-] (stereo unspecified) |  | 11 | 12 | pIC50 [4]: 4.30
C=C(C(=O)CC)C(O)c1ccc(Cl)cc1 (stereo unspecified) |  | 13 | 12 | 
CC(=O)CC/C(=C/c1ccccc1)[N+](=O)[O-] | > 70 |  |  | 
C=C(C#N)C(O)c1ccc(F)cc1 (stereo unspecified) |  | 11 | 13 | 
Cc1ccc(S(=O)(=O)NC(/C(=C/c2ccc3c(c2)OCO3)[N+](=O)[O-])c2ccccc2)cc1 (stereo unspecified) | 29 |  |  | 
C=C(C(=O)OCC)C(O)c1ccc(Cl)cc1 (stereo unspecified) |  | 11 | 12 | 
Cc1ccc(S(=O)(=O)NC(/C(=C/c2ccoc2)[N+](=O)[O-])c2ccco2)cc1 (stereo unspecified) | 33 |  |  | 
C=C(C(=O)OCC)C(O)c1ccc(F)cc1 (stereo unspecified) |  | 14 | 15 | 
C=C(C(=O)OCC)C(O)c1ccc(Cl)cc1Cl (stereo unspecified) |  | 11 | 15 | 
C=C(C(=O)OC)C(O)c1ccc([N+](=O)[O-])cc1 (stereo unspecified) |  |  | 13 | pIC50 [4]: 3.71
Cc1ccc(S(=O)(=O)NC(/C(=C/c2cccs2)[N+](=O)[O-])c2ccco2)cc1 (stereo unspecified) | 28 |  |  | 
Cc1ccc(S(=O)(=O)NC(/C(=C/c2ccsc2)[N+](=O)[O-])c2ccccc2)cc1 (stereo unspecified) | 45 |  |  | 
COc1ccc(/C=C(/C(NS(=O)(=O)c2ccc(C)cc2)c2ccccc2)[N+](=O)[O-])cc1 (stereo unspecified) | 23 |  |  | 
C=C(C#N)C(O)c1ccc(Cl)cc1Cl (stereo unspecified) |  | 13 | 11 | 
